Data taken from ChEMBL document CHEMBL5143555, “Potentiating the intracellular killing of Staphylococcus aureus by dihydroquinazoline analogues as NorA efflux pump inhibitor” (Bioorg Med Chem, 2022).
In brackets after ≈: the same amount, converted by molar mass. Activity calls are given as the source filed them. The rule behind the calls is not given here.

Key:
Staphylococcus aureus [1] = assay: Up regulation of NorA gene expression in Staphylococcus aureus 1199B at 1.55 ug/ml measured after 2 hrs by qRT-PCR analysis relative to control; assay type: functional; settings: dose 1.55 µg/ml
Staphylococcus aureus [2] = assay: Bactericidal activity against Staphylococcus aureus 1199B assessed as bacterial count at 3.1 ug/mL measured after 24 hrs by time-kill kinetics assay; assay type: functional; settings: dose 3.1 µg/ml
Staphylococcus aureus [3] = assay: Antibacterial activity against Staphylococcus aureus 1199B measured after 24 hrs by Muller Hinton broth based MTT assay; assay type: functional
Staphylococcus aureus [4] = assay: Antibacterial activity against Staphylococcus aureus K1758 measured after 24 hrs by Muller Hinton broth based MTT assay; assay type: functional
Staphylococcus aureus [5] = assay: Antibacterial activity against Staphylococcus aureus 1199 measured after 24 hrs by Muller Hinton broth based MTT assay; assay type: functional
Staphylococcus aureus [6] = assay: Bactericidal activity against Staphylococcus aureus 1199B at 50 ug/mL by time-kill kinetics assay; assay type: functional, organism-based; settings: dose 50.0 µg/ml
[7] = target: T1, Quinolone resistance protein NorA (Staphylococcus aureus) (UniProt P0A0J7); assay: Inhibition of NorA in Staphylococcus aureus 1199B assessed as accumulation of ethidium bromide at 2.5 ug/ml by measuring fluorescence intensity measured at 5 mins interval for 40 mins by fluorescence spectrophotometry; settings: dose 2.5 µg/ml
T1 sequence (whole entry): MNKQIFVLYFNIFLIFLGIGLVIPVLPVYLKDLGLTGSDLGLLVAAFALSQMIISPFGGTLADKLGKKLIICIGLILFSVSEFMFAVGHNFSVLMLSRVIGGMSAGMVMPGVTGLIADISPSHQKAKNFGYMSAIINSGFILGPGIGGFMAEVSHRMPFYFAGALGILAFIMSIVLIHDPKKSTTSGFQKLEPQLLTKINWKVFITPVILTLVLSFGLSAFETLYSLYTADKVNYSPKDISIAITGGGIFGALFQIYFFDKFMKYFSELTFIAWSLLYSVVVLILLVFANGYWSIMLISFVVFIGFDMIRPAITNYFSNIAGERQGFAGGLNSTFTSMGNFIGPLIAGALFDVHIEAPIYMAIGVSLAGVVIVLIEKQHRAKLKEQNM

[8] = target: T1, Quinolone resistance protein NorA (Staphylococcus aureus); assay: Inhibition of NorA in Staphylococcus aureus 1199B assessed as potentiation of ethidium bromide-induced antibacterial activity by measuring fractional inhibitory concentration
[9] = target: T1, Quinolone resistance protein NorA (Staphylococcus aureus); assay: Inhibition of NorA in Staphylococcus aureus 1199B assessed as potentiation of ethidium bromide-induced antibacterial activity by measuring ethidium bromide MIC at sub MIC
[10] = target: T1, Quinolone resistance protein NorA (Staphylococcus aureus); assay: Inhibition of NorA in Staphylococcus aureus 1199B assessed as potentiation of norfloxacin-induced antibacterial activity by measuring fractional inhibitory concentration
[11] = target: T1, Quinolone resistance protein NorA (Staphylococcus aureus); assay: Inhibition of NorA in Staphylococcus aureus 1199B assessed as potentiation of norfloxacin-induced antibacterial activity by measuring Norfloxacin MIC at sub MIC relative to norfloxacin MIC alone
[12] = target: T1, Quinolone resistance protein NorA (Staphylococcus aureus); assay: Inhibition of NorA in Staphylococcus aureus 1199B assessed as potentiation of norfloxacin-induced antibacterial activity by measuring Norfloxacin MIC at sub MIC
[13] = target: T1, Quinolone resistance protein NorA (Staphylococcus aureus); assay: Inhibition of NorA in Staphylococcus aureus 1199B assessed as potentiation of ethidium bromide-induced antibacterial activity by measuring ethidium bromide MIC at sub MIC relative to ethidium bromide MIC alone
[14] = target: T1, Quinolone resistance protein NorA (Staphylococcus aureus); assay: Inhibition of NorA in Staphylococcus aureus 1199B assessed as accumulation of norfloxacin at 2.5 ug/ml by measuring fluorescence intensity measured at 5 mins interval for 40 mins by fluorescence spectrophotometry; settings: dose 2.5 µg/ml
Staphylococcus aureus [15] = assay: Down regulation of NorA gene expression in Staphylococcus aureus 1199B at 3.9 ug/ml measured after 2 hrs by qRT-PCR analysis; assay type: functional; settings: dose 3.9 µg/ml
[16] = target: T1, Quinolone resistance protein NorA (Staphylococcus aureus); assay: Inhibition of NorA in Staphylococcus aureus 1199B infected human THP-1 cells assessed as potentiation of norfloxacin-induced bactericidal activity by measuring reduction in intracellular invasion at modulatory concentration measured after 24 hrs; assay type: cell-based
[17] = target: T1, Quinolone resistance protein NorA (Staphylococcus aureus); assay: Inhibition of NorA in Staphylococcus aureus 1199B assessed as potentiation of norfloxacin-induced morphological changes by measuring appearance of rough and dented cell at sub MIC by field emission scanning electron microscopy
[18] = target: T1, Quinolone resistance protein NorA (Staphylococcus aureus); assay: Inhibition of NorA in Staphylococcus aureus 1199B infected human THP-1 cells assessed as potentiation of 6.2 ug/ml norfloxacin-induced bactericidal activity by measuring log reduction in bacterial count at 15.6 ug/ml measured after 24 hrs relative to control; assay type: cell-based; settings: dose 15.6 µg/ml
[19] = target: T1, Quinolone resistance protein NorA (Staphylococcus aureus); assay: Inhibition of NorA in Staphylococcus aureus 1199B infected human THP-1 cells assessed as potentiation of norfloxacin-induced bactericidal activity by measuring reduction in bacterial count at modulatory concentration measured after 24 hrs relative to control; assay type: cell-based
[20] = target: T1, Quinolone resistance protein NorA (Staphylococcus aureus); assay: Inhibition of NorA in Staphylococcus aureus 1199B infected human THP-1 cells assessed as potentiation of norfloxacin-induced bactericidal activity by measuring reduction in intracellular proliferation at modulatory concentration measured after 24 hrs; assay type: cell-based
[21] = target: T1, Quinolone resistance protein NorA (Staphylococcus aureus); assay: Inhibition of NorA in Staphylococcus aureus 1199B assessed as potentiation of ethidium bromide-induced bactericidal activity at 15.6 ug/ml measured within 8 hrs by time-kill kinetics assay; settings: dose 15.6 µg/ml
[22] = Cytotoxicity against kidney epithelial cells (unknown origin) assessed as cell viability at 50 ug/mL measured after 24 hrs by alamar blue assay relative to control; assay type: toxicity, cell-based, Fetal kidney cell; settings: at 50 µg/mL, read-out: Activity
[23] = target: T1, Quinolone resistance protein NorA (Staphylococcus aureus); assay: Inhibition of NorA in Staphylococcus aureus 1199B assessed as accumulation of ethidium bromide at 3.9 ug/ml by measuring fluorescence intensity measured at 5 mins interval for 40 mins by fluorescence spectrophotometry; settings: dose 3.9 µg/ml
[24] = target: T1, Quinolone resistance protein NorA (Staphylococcus aureus); assay: Inhibition of NorA in Staphylococcus aureus 1199B infected human THP-1 cells assessed as potentiation of norfloxacin-induced bactericidal activity by measuring reduction in bacterial count at modulatory concentration measured after 24 hrs; assay type: cell-based
Staphylococcus aureus [25] = assay: Down regulation of NorA gene expression in Staphylococcus aureus 1199B at 3.1 ug/ml measured after 2 hrs in presence of norfloxacin by qRT-PCR analysis relative to norfloxacin; assay type: functional; settings: dose 3.1 µg/ml
Staphylococcus aureus [26] = assay: Down regulation of NorA gene expression in Staphylococcus aureus 1199B at 3.1 ug/ml measured after 2 hrs by qRT-PCR analysis relative to control; assay type: functional; settings: dose 3.1 µg/ml
[27] = target: T1, Quinolone resistance protein NorA (Staphylococcus aureus); assay: Inhibition of NorA in Staphylococcus aureus 1199B infected human THP-1 cells assessed as potentiation of norfloxacin-induced bactericidal activity by measuring log reduction in bacterial count measured after 24 hrs relative to vancomycin; assay type: cell-based
[28] = target: T1, Quinolone resistance protein NorA (Staphylococcus aureus); assay: Inhibition of NorA in Staphylococcus aureus 1199B assessed as accumulation of norfloxacin at 3.9 ug/ml by measuring fluorescence intensity measured at 5 mins interval for 40 mins by fluorescence spectrophotometry; settings: dose 3.9 µg/ml
[29] = target: T1, Quinolone resistance protein NorA (Staphylococcus aureus); assay: Inhibition of NorA in Staphylococcus aureus 1199B assessed as potentiation of 3.1 ug/mL norfloxacin-induced bactericidal activity by measuring log reduction in bacterial count at 7.8 ug/mL measured after 8 hrs by time-kill kinetics assay; settings: dose 7.8 µg/ml
[30] = target: T1, Quinolone resistance protein NorA (Staphylococcus aureus); assay: Inhibition of NorA in Staphylococcus aureus 1199B assessed as accumulation of ethidium bromide at 50 ug/ml by measuring fluorescence intensity measured at 5 mins interval for 40 mins by fluorescence spectrophotometry; settings: dose 50.0 µg/ml
[31] = target: T1, Quinolone resistance protein NorA (Staphylococcus aureus); assay: Inhibition of NorA in Staphylococcus aureus 1199B assessed as accumulation of norfloxacin at 50 ug/ml by measuring fluorescence intensity measured at 5 mins interval for 40 mins by fluorescence spectrophotometry; settings: dose 50.0 µg/ml

Row | SMILES | MIC (Staphylococcus aureus [3]) [µg/mL] | MIC (Staphylococcus aureus [4]) [µg/mL] | MIC (Staphylococcus aureus [5]) [µg/mL] | fractional inhibitory concentration index (FICI) [8] | MIC [9] [µg/mL] | fractional inhibitory concentration index (FICI) [10] | fold change (FC) [11] | MIC [12] [µg/mL] | fold change (FC) [13] | further results
1 | CCn1cc(C(=O)O)c(=O)c2cc(F)c(N3CCNCC3)cc21 [NORFLOXACIN] | 50 (≈ 157 µM) | 0.2 (≈ 0.626 µM) | 1.56 (≈ 4.89 µM) | – | – | – | – | – | – | fold change (FC) (Staphylococcus aureus [1]): 0.076; Activity (Staphylococcus aureus [2]): 6 log10CFU/ml; inhibition (Staphylococcus aureus [6]): Active
2 | N#CC(C#N)=NNc1cccc(Cl)c1 [CARBONYL CYANIDE M-CHLOROPHENYLHYDRAZONE] | 20 (≈ 97.7 µM) | – | – | 0.562 | 3.1 | 0.625 | 8 | 6.2 | 16 | Flu intensity [7]: 149; Flu intensity [14]: 695
3 | C=CCOc1ccc(C2N=C(c3ccccc3)c3cc(Cl)ccc3N2C)cc1 (stereo unspecified) | 500 (≈ 1290 µM) | 31.2 (≈ 80.2 µM) | 125 (≈ 321 µM) | 0.281 | 12.5 | 0.141 | 8 | 6.2 | 4 | Activity (Staphylococcus aureus [15]): Active; inhibition [16]: Active; inhibition [17]: Active; FC [18]: 5; fold change (FC) [19]: 4; inhibition [20]: Active; inhibition [21]: Active; viability at 24 h, 50 ug/mL [22]: 94.8%; Flu intensity [23]: 173; Activity [24]: 4.25 log10CFU/ml; fold change (FC) (Staphylococcus aureus [25]): 9; fold change (FC) (Staphylococcus aureus [26]): 8; FC [27]: 3; Flu intensity [28]: 15400; Activity [29]: > 3 log10CFU/ml
4 | COc1ccc(CCN(C)CCCC(C#N)(c2ccc(OC)c(OC)c2)C(C)C)cc1OC (stereo unspecified) [VERAPAMIL] | 400 (≈ 880 µM) | – | – | – | 6.2 | – | 4 | 12.5 | 8 | Flu intensity [30]: 189; Flu intensity [31]: 1590
